Where “and” joins values, the source holds several entries; their conditions need not be identical. Equal entries are not always repeated.
Key:
active CRAF (306-end) = biological target: T1, active CRAF (306-end) (Homo sapiens, UniProt P04049, Y340E/Y341E); assay: In vitro kinase assay (western blotting); type: biochemical; settings: 12.5 to 50 nM, dose-dependent
T1 construct: purchased Signal Chem R01-13G
Experimental: (§1) After incubated with 100–400 μM ATP in kinase assay buffer for 30 min, the phosphorylation of the substrate/total substrate protein was detected by western blotting. For ADP-glo kinase assay, unconsumed ATP was depleted with the addition of ADP-Glo™. Followed by kinase detection reagent to convert ADP to ATP, consumption of ATP was detected to evaluate the kinase activity. For more details, refer to the manufacturer’s instructions of ADP-Glo™ Kinase Assay.

[1] = biological target: active GST-MEK2 full length (Homo sapiens, UniProt P36507); assay: In vitro kinase assay (western blotting); type: biochemical; settings: 12.5 to 50 nM, dose-dependent
Chain of active GST-MEK2 full length (P36507 whole entry): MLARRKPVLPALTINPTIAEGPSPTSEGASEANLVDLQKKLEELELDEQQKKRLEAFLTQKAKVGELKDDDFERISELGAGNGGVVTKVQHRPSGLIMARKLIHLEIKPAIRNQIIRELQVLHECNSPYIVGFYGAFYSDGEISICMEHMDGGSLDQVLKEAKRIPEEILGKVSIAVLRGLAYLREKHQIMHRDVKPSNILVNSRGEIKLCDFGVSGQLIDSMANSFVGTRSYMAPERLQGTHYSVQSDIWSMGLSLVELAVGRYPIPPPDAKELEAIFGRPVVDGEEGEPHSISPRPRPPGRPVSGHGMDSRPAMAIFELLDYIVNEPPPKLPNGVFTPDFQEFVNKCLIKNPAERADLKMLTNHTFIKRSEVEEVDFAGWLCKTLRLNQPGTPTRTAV
Experimental: as §1

[2] = biological target: active GST-MEK1 full length (Homo sapiens, UniProt Q02750); assay: In vitro kinase assay (western blotting); type: biochemical; settings: 12.5 to 50 nM, dose-dependent
Chain of active GST-MEK1 full length (Q02750 whole entry): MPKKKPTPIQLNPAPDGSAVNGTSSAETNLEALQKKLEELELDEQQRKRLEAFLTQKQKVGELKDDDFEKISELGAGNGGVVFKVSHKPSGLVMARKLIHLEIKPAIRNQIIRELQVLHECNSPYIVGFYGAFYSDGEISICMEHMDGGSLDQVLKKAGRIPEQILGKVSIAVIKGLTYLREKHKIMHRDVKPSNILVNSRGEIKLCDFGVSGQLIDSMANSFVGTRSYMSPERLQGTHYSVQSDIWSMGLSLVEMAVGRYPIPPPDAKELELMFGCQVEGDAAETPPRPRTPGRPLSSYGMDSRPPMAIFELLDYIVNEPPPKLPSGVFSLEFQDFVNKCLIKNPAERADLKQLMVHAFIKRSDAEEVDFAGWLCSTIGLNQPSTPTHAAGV
Experimental: as §1

MEK1 full length = MEK1 full length (Homo sapiens, UniProt Q02750); assay: SPR; type: binding; settings: CM5 chip, Biacore T200, read-out: equilibrium dissociation constant (KD)
Chain of MEK1 full length (Q02750 whole entry): as above
Experimental: (§2) 293 T cells were transfected with plasmids of pcDNA3.1-3×Flag-C-MAP2K1/MAP2K1 (K97A, M146A), MAP2K2/MAP2K1 (K101A, M150A), or CRAF/CRAF (K375A). […]
(§3) After incubation, a series concentration of erianin (RAF inhibitor LY3009120 and MEK inhibitor cobimetinib were simultaneously added as positive control) flowed through the protein-CM5 system. The binding was tested and analyzed using Biacore T200 instrument.

MEK2 full length = MEK2 full length (Homo sapiens, UniProt P36507); assay: SPR; type: binding; settings: CM5 chip, Biacore T200, read-out: equilibrium dissociation constant (KD)
Chain of MEK2 full length (P36507 whole entry): as the sequence (P36507 whole entry) above
Experimental: as §2, §3

CRAF (306-end) = biological target: T2, CRAF (306-end) (Homo sapiens, UniProt P04049); assay: SPR; type: binding; settings: CM5 chip, Biacore T200, read-out: equilibrium dissociation constant (KD)
T2 construct: purchased
Experimental: as §2, §3

CRAF = biological target: T3, CRAF (Homo sapiens, UniProt P04049); assay: Erianin-conjugated Sepharose 4B bead pull-down assay; type: binding; settings: in vitro and ex vivo (A375 cell lysate)
T3 construct: endogenous in cells; host or cells: A375
Experimental: as §2
Cell lysate (500 μg) or recombinant proteins (200 ng) were incubated with erianin-CNBr activated sepharose 4B overnight at 4 °C, and the protein-beads complex was washed four times by the use of rotational incubator to remove non-specific binding. Western blotting was developed to check the pull-down bands.

[3] = tested on: colorectal cancer PDX harboring KRAS mutation; assay: Patient-derived xenograft (PDX); set-up: species or system NOD-SCID mice; settings: mouse, in vivo
From the text: Figure S7. […] Tumor volume of (c). e Tumor weight of (c). f, h Changes of body weight after drug administration in melanoma and CRC PDX model. g, i HE staining of liver and spleen in melanoma PDX model. Scale bars: 200 μm.

COc1ccc(CCc2cc(OC)c(OC)c(OC)c2)cc1O [Erianin]
CRAF kinase activity (phosphorylation of MEK1) (active CRAF (306-end)): inhibited | MEK2 kinase activity (phosphorylation of ERK2) [1]: inhibited | MEK1 kinase activity (phosphorylation of ERK1) [2]: inhibited | Kd (MEK1 full length): 68.5 µM | Kd (MEK2 full length): 115 µM | Kd (CRAF (306-end)): 89.6 µM and 89.7 µM | binding in pull-down (CRAF): directly bound | toxicity in body weight [3]: low toxicity | tumor growth [3]: restrained tumor growth significantly

— PMC9986241 (Signal Transduction and Targeted Therapy, 2023)
